# In PMC5971061, “Differential Effects of Linkers on the Activity of Amphiphilic Tobramycin Antifungals” (Molecules : A Journal of Synthetic Chemistry and Natural …, 2018):
# Experiments:
# [1] = tested on: murine red blood cells (mRBCs); experiment: Hemolytic activity assay; format: cell-based; settings: 62.5 μg/mL, mRBCs, 37 °C 1 h, ± SDEV
# Description: (§1) The hemolytic activity of compounds 3, 4, 7a, 7b, and 9 as well as the parent compound TOB was determined by using previously described methods with minor modifications. Murine whole blood (1 mL) was suspended in 4 mL of PBS and centrifuged at 1000 rpm for 10 min at room temperature to obtain murine red blood cells (mRBCs). The mRBCs were washed four times in PBS and resuspended in the same buffer to a final concentration of 10^7 erythrocytes/mL. Two-fold serial dilutions of compounds 3, 4, 7a, 7b, and 9 were prepared using 100 μL of PBS buffer in Eppendorf tubes followed by the addition of 100 μL of mRBC suspension that made the final concentration of compounds and mRBCs to be 0.48–62.5 μg/mL and 5 × 10^6 erythrocytes/mL, respectively. The tubes were incubated at 37 °C for 1 h. The tubes with PBS buffer (200 μL) and Triton X-100® (1% v/v, 2 μL) served as the negative (blank) and positive controls, respectively. The percentage of hemolysis was calculated using the following equation: % hemolysis = [(absorbance of sample) − (absorbance of blank)] × 100/(absorbance of positive control).
# [2] = Hemolytic activity assay; format: cell-based, murine; settings: mouse, murine red blood cells (mRBCs), mRBCs, 37 °C 1 h, ± SDEV
# Description: as §1
# [3] = tested on: Cryptococcus neoformans clinical isolate CN1; experiment: MIC, broth microdilution (CLSI M27-A3), CN1; format: cell-based; settings: MIC-0, CN1, 35 °C 48 h
# Description: (§2) The final concentrations of compounds 3, 4, 7a, 7b, 9, and 16, as well as that of TOB tested in this study ranged from 0.24–62.5 μg/mL. CAS was used as a positive control and the final concentrations tested for CAS ranged from 0.03–31.3 μg/mL. Briefly, overnight yeast cultures were grown in yeast peptone dextrose (YPD) broth and the cell density was adjusted to an OD600 of 0.12 (~1 × 10^6 CFU/mL) by using a spectrophotometer. Yeast cell suspensions were further diluted to achieve 1–5 × 10^3 CFU/mL in RPMI 1640 medium, and 100 μL of these yeast cells was added to 96-well microtiter plates containing RPMI 1640 medium and titrated compounds. Each test was performed in triplicate. The plates were incubated at 35 °C for 48 h.
# [4] = tested on: C. albicans ATCC 90819(R) (strain D); experiment: MIC, broth microdilution (CLSI M27-A3), yeast strain D; format: cell-based; settings: Candida albicans, ATCC90819; MIC-0, strain D, 35 °C 48 h
# Description: as §2
# [5] = tested on: C. albicans ATCC 64124 (strain B); experiment: MIC, broth microdilution (CLSI M27-A3), yeast strain B; format: cell-based; settings: Candida albicans, ATCC64124; MIC-0, strain B, 35 °C 48 h
# Description: as §2
# [6] = tested on: Candida parapsilosis ATCC 22019 (strain J); experiment: MIC, broth microdilution (CLSI M27-A3), yeast strain J; format: cell-based; settings: Lodderomyces parapsilosis, ATCC22019; MIC-0, strain J, 35 °C 48 h
# Description: as §2
# [7] = tested on: Candida parapsilosis clinical isolate CP3; experiment: MIC, broth microdilution (CLSI M27-A3), CP3; format: cell-based; settings: MIC-0, CP3, 35 °C 48 h
# Description: as §2
# [8] = tested on: Aspergillus flavus ATCC MYA-3631 (strain K); experiment: MIC, filamentous fungi (CLSI M38-A2), strain K; format: cell-based; settings: Aspergillus flavus, 72 h, MIC-0, strain K, 35 °C 72 h; read-out: MIC
# Description: (§3) The spores were harvested from sporulating cultures growing on potato dextrose agar (PDA) by filtration through sterile glass wool and enumerated by using a hemocytometer (Hausser Scientific, Horsham, PA, USA) to obtain the desired inoculum size. Two-fold serial dilutions of compounds 3, 4, 7a, 7b, 9, and 16, as well as CAS and TOB were made in sterile 96-well microtiter plates to obtain the final concentration range of 0.24–62.5 μg/mL for TOB and TOB derivatives as well as 0.03–31.3 μg/mL for CAS in the RPMI 1640 medium. The spore suspensions were added to the wells to afford a final concentration of 5 × 10^5 spores/mL. The plates were incubated at 35 °C for 72 h. […] Each test was performed in triplicate.
# [9] = tested on: Candida parapsilosis clinical isolate CP2; experiment: MIC, broth microdilution (CLSI M27-A3), CP2; format: cell-based; settings: Lodderomyces parapsilosis; MIC-0, CP2, 35 °C 48 h
# Description: as §2
# [10] = tested on: Candida glabrata clinical isolate CG3; experiment: MIC, broth microdilution (CLSI M27-A3), CG3; format: cell-based; settings: Nakaseomyces glabratus; MIC-0, CG3, 35 °C 48 h
# Description: as §2
# [11] = tested on: C. albicans ATCC MYA-2310(S) (strain E); experiment: MIC, broth microdilution (CLSI M27-A3), yeast strain E; format: cell-based; settings: Candida albicans; MIC-0, strain E, 35 °C 48 h
# Description: as §2
# [12] = tested on: Cryptococcus neoformans clinical isolate CN2; experiment: MIC, broth microdilution (CLSI M27-A3), CN2; format: cell-based; settings: MIC-0, CN2, 35 °C 48 h
# Description: as §2
# [13] = tested on: Candida glabrata clinical isolate CG2; experiment: MIC, broth microdilution (CLSI M27-A3), CG2; format: cell-based; settings: Nakaseomyces glabratus; MIC-0, CG2, 35 °C 48 h
# Description: as §2
# [14] = tested on: C. albicans ATCC MYA-2876(S) (strain C); experiment: MIC, broth microdilution (CLSI M27-A3), yeast strain C; format: cell-based; settings: Candida albicans; MIC-0, strain C, 35 °C 48 h
# Description: as §2
# [15] = tested on: Cryptococcus neoformans clinical isolate CN3; experiment: MIC, broth microdilution (CLSI M27-A3), CN3; format: cell-based; settings: MIC-0, CN3, 35 °C 48 h
# Description: as §2
# [16] = tested on: Candida krusei ATCC 6258 (strain I); experiment: MIC, broth microdilution (CLSI M27-A3), yeast strain I; format: cell-based; settings: Pichia kudriavzevii, ATCC6258; MIC-0, strain I, 35 °C 48 h
# Description: as §2
# [17] = tested on: Candida parapsilosis clinical isolate CP1; experiment: MIC, broth microdilution (CLSI M27-A3), CP1; format: cell-based; settings: Lodderomyces parapsilosis; MIC-0, CP1, 35 °C 48 h
# Description: as §2
# [18] = tested on: nine non-albicans Candida strains (H-J, CG1-3, CP1-3); experiment: MIC across the panel of nine non-albicans Candida strains; format: cell-based, Candida glabrata, Candida krusei, Candida parapsilosis
# Description: as §2
# [19] = tested on: C. albicans ATCC MYA-1237(R) (strain F); experiment: MIC, broth microdilution (CLSI M27-A3), yeast strain F; format: cell-based; settings: Candida albicans; MIC-0, strain F, 35 °C 48 h
# Description: as §2
# [20] = tested on: C. albicans ATCC MYA-1003(R) (strain G); experiment: MIC, broth microdilution (CLSI M27-A3), yeast strain G; format: cell-based; settings: Candida albicans; MIC-0, strain G, 35 °C 48 h
# Description: as §2
# [21] = tested on: C. albicans ATCC 10231 (strain A); experiment: MIC, broth microdilution (CLSI M27-A3), yeast strain A; format: cell-based, Candida albicans
# Description: as §2
# [22] = tested on: Aspergillus terreus ATCC MYA-3633 (strain M); experiment: MIC, filamentous fungi (CLSI M38-A2), strain M; format: cell-based; settings: MIC-0, strain M, 35 °C 72 h
# Description: as §3
# [23] = tested on: Candida glabrata clinical isolate CG1; experiment: MIC, broth microdilution (CLSI M27-A3), CG1; format: cell-based; settings: Nakaseomyces glabratus; MIC-0, CG1, 35 °C 48 h
# Description: as §2
# [24] = tested on: seven C. albicans strains (A-G); experiment: MIC across the panel of seven C. albicans strains; format: cell-based; settings: Candida albicans; across all seven C. albicans strains tested
# Description: as §2
# [25] = tested on: Aspergillus nidulans ATCC 38163 (strain L); experiment: MIC, filamentous fungi (CLSI M38-A2), strain L; format: cell-based; settings: Aspergillus nidulans, ATCC38163, 72 h, MIC-0, strain L, 35 °C 72 h; read-out: MIC
# Description: as §3
# [26] = tested on: Candida glabrata ATCC 2001 (strain H); experiment: MIC, broth microdilution (CLSI M27-A3), yeast strain H; format: cell-based; settings: Nakaseomyces glabratus, ATCC2001; MIC-0, strain H, 35 °C 48 h
# Description: as §2
# [27] = tested on: C. neoformans (strain CN1); experiment: Time-kill assay, CN1; format: cell-based, Cryptococcus neoformans; settings: controls TOB 15.6 μg/mL and VOR 1× MIC, 24-h period
# Description: (§4) Time-kill assays were used to assess the inhibitory efficiency of 7b against three yeast strains, C. albicans ATCC 10231 (strain A), C. parapsilosis ATCC 22019 (strain J), and C. neoformans clinical isolate CN1. The protocol for time-kill assays followed methods previously described with minor modifications. Yeast cultures were grown overnight in YPD broth at 35 °C with shaking (200 rpm). A working stock of fungal cells was made by diluting cultures in RPMI 1640 medium to an OD600 of 0.125, approximately 1 × 10^6 CFU/mL. From the working stock, 100 μL of cells was added to 4.9 mL of RPMI 1640 medium in sterile culture tubes, making the starting fungal cell concentration […]. Compounds were then added to the fungal cells. The treatment conditions included sterile control, growth control, TOB (parent; negative control), voriconazole (VOR) at 1× MIC (positive control), 7b at 1× and 4× MIC. The treated fungal cultures were incubated at 35 °C with shaking (200 rpm) for 24 h. The samples were taken from the different treatments at regular time points (0, 3, 6, 9, 12, and 24 h.) and plated in duplicates. For each time point, cultures were vortexed, 100 μL of culture was aspirated, and 10-fold serial dilutions were made in sterile ddH2O. From the appropriate dilutions, 100 μL of fungal suspension was spread on PDA plates and incubated at 35 °C for 48 h before the colony counts were determined. At 24 h, 50 μL of 1 mM resazurin was added to the treatments and incubated at 35 °C with rotation for 2 h in the dark for visual inspection. Experiments were performed in duplicate.
# [28] = tested on: C. albicans ATCC 10231 (strain A); experiment: Time-kill assay, strain A; format: cell-based, Candida albicans
# Description: as §4
smiles,measurement,setting,value
"C[C@@H]1[C@H](O)[C@@H](C)/C=C/C=C/C=C/C=C/C=C/C=C/C=C/[C@H](O[C@@H]2O[C@H](C)[C@@H](O)[C@H](N)[C@@H]2O)C[C@@H]2O[C@](O)(C[C@@H](O)C[C@@H](O)[C@H](O)CC[C@@H](O)C[C@@H](O)CC(=O)O[C@H]1C)C[C@H](O)[C@H]2C(=O)O [AmB, amphotericin B, reference compound]",% hemolysis,[1],90.3 ± 5.7%
same,"hemolysis at 1 h, 0.48 μg/mL",[2]; 0.48 μg/mL,0%
same,"hemolysis at 1 h, 0.975 μg/mL",[2]; 0.975 μg/mL,0%
same,"hemolysis at 1 h, 1.95 μg/mL",[2]; 1.95 μg/mL,1.7 ± 0.1%
same,"hemolysis at 1 h, 3.9 μg/mL",[2]; 3.9 μg/mL,3.4 ± 0.6%
same,"hemolysis at 1 h, 7.8 μg/mL",[2]; 7.8 μg/mL,3.7 ± 0.7%
same,"hemolysis at 1 h, 15.6 μg/mL",[2]; 15.6 μg/mL,31.9 ± 5.7%
same,"hemolysis at 1 h, 31.3 μg/mL",[2]; 31.3 μg/mL,80.2 ± 8.5%
"CCCCCCCCCCCCOCC1OC(OC2C(N)CC(N)C(OC3OC(CN)C(O)CC3N)C2O)C(O)C(N)C1O [Compound 16, O-3-Amino-3-deoxy-6-O-dodecyl-α-D-glucopyranosyl-(1→6)-O-[2,6-diamino-2,3,6-trideoxy-α-D-ribo-hexopyranosyl-(1→4)]-2-deoxy-D-streptamine]",MIC,[3],1.95 µg/mL
same,MIC,[4],62.5 µg/mL
same,MIC,[5],62.5 µg/mL
same,MIC,[6],31.3 µg/mL
same,MIC,[7],62.5 µg/mL
same,MIC,[8],> 62.5 µg/mL
same,MIC,[9],62.5 µg/mL
same,MIC,[10],62.5 µg/mL
same,MIC,[11],62.5 µg/mL
same,MIC,[12],0.975 µg/mL
same,MIC,[13],62.5 µg/mL
same,MIC,[14],> 62.5 µg/mL
same,MIC,[15],3.9 µg/mL
same,MIC,[16],31.3 µg/mL
same,MIC,[17],62.5 µg/mL
same,MIC,[18],31.3 to 62.5 µg/mL
same,MIC,[19],62.5 µg/mL
same,MIC,[20],62.5 µg/mL
same,MIC,"[21]; Candida albicans, ATCC10231, MIC-0, strain A, 35 °C 48 h",62.5 µg/mL
same,MIC,[22],> 62.5 µg/mL
same,MIC,[23],> 62.5 µg/mL
same,MIC,[24],≥ 62.5 µg/mL
same,MIC,[25],3.9 µg/mL
same,MIC,[26],62.5 µg/mL
"C[C@@H](c1ncncc1F)[C@](O)(Cn1cncn1)c1ccc(F)cc1F [VOR, voriconazole, reference compound]",1× MIC value,"[21]; as used in the time-kill study, strain A",1.0 µg/mL
same,"effect on growth (time-kill, in words)",[27],little to no growth inhibitory effect
same,reduction of CFU,"[28]; 1× MIC (7b 3.9 μg/mL; VOR 1.0 μg/mL), after 9 h of treatment",≥ 2 log10
same,"effect on growth (time-kill, in words)","[28]; 24-h period, TOB 15.6 μg/mL, VOR 1× MIC 1.0 μg/mL",maintained a fungistatic activity up to the 24-h period
